For 24 molecules, AC50 results are on record in patent US20230365592A1 (Agios Pharmaceuticals, Inc., priority 2022, published 2023).

Some results are limits rather than exact numbers.

The target in the test is T1, human PAH with the R408W mutation (Homo sapiens, UniProt P00439, R408W).
T1 construct: expressed in transfected cells
T1 sequence (P00439 1-452 R408W): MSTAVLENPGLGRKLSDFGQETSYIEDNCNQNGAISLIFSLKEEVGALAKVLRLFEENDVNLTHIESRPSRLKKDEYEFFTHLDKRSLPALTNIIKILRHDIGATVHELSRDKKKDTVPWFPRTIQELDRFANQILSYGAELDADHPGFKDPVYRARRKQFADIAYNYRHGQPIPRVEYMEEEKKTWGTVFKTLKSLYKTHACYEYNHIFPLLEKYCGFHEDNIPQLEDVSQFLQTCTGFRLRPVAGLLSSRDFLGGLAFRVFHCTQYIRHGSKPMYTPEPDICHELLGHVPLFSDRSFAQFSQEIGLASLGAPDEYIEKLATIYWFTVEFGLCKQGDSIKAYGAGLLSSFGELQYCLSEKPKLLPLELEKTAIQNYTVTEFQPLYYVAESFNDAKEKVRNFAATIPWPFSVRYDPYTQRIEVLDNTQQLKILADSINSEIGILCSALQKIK
Put plainly: Cell Based Phenylalanine Flux Assay.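 Also: after compound treatment, cells received sepiapterin plus isotope-labelled Phenylalanine for 4 hours, then labelled Tyrosine in the medium was quantified, 10-point 2-fold dilution series run in duplicate.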 The note with it: A375 cells expressing human R408W PAH; 24 hrs compound incubation; 13C-Tyrosine by LC-MS; average where tested multiple times; read-out: AC50.
Protocol: Compounds were resuspended in DMSO, and 2-fold serial dilutions were performed to generate a 10-point dose curve. Compounds were added to plated cells in a total volume of 100 µl, and a final DMSO concentration of 0.5%. Each compound was tested in duplicate. Following compound addition, cells were placed in a 5% CO2, 37° C. tissue culture incubator for 24 hrs. After the incubation period, 20 µM sepiapterin and 800 µM 13C9,15N-Phenylalanine were added. After 4 hours, cell media was removed. An aliquot of 10 µl of cell media was combined with 200 µl of extraction buffer (80% acetonitrile/20% H2O) for each well. Determination of ^13C-Tyrosine concentration was assessed by liquid chromatography mass spectrometry.
Where a compound was tested multiple times, the average value of the tests is reported.
Consider `Cc1ccc2cc([C@@H]3c4nc[nH]c4CCN3C(=O)c3nnc(C(C)(C)F)o3)nn2c1` [Example 1171, (S)-(5-(2-fluoropropan-2-yl)-1,3,4-oxadiazol-2-yl)(4-(6-methylpyrazolo[1,5-a]pyridin-2-yl)-6,7-dihydro-1H-imidazo[4,5-c]pyridin-5(4H)-yl)methanone], for which the AC50 – broadly, the midpoint of the concentration-response curve, whichever way the signal moves – is 500 to 1000 nM.
With `O=C(c1ocnc1C(F)(F)F)N1CCc2[nH]cnc2[C@H]1c1cc2cccc(Cl)n2n1` [Example 1172, (S)-(4-(7-chloropyrazolo[1,5-a]pyridin-2-yl)-6,7-dihydro-1H-imidazo[4,5-c]pyridin-5(4H)-yl)(4-(trifluoromethyl)oxazol-5-yl)methanone] the figure was less than 500 nM; with `Cc1ncoc1C(=O)N1CCc2[nH]cnc2[C@H]1c1cc2cccc(Cl)n2n1` [Example 1174, (S)-(4-(7-chloropyrazolo[1,5-a]pyridin-2-yl)-6,7-dihydro-1H-imidazo[4,5-c]pyridin-5(4H)-yl)(4-methyloxazol-5-yl)methanone], 500 to 1000 nM.
In the case of `O=C(c1ocnc1C(F)(F)F)N1CCc2[nH]cnc2[C@H]1c1cc2cccc(C(F)(F)F)n2n1` [Example 1176, (S)-(4-(trifluoromethyl)oxazol-5-yl)(4-(7-(trifluoromethyl)pyrazolo[1,5-a]pyridin-2-yl)-6,7-dihydro-1H-imidazo[4,5-c]pyridin-5(4H)-yl)methanone], the AC50 was less than 500 nM.
The result for `CC(C)(O)c1nc(C(F)(F)F)c(C(=O)N2CCc3[nH]cnc3[C@H]2c2cc3cccc(C(F)(F)F)n3n2)o1` [Example 1178, (S)-(2-(2-hydroxypropan-2-yl)-4-(trifluoromethyl)oxazol-5-yl)(4-(7-(trifluoromethyl)pyrazolo[1,5-a]pyridin-2-yl)-6,7-dihydro-1H-imidazo[4,5-c]pyridin-5(4H)-yl)methanone] reads less than 500 nM; that for `C[C@@H](O)c1nc(C(F)F)c(C(=O)N2CCc3[nH]cnc3[C@H]2c2cc3cccc(C(F)(F)F)n3n2)o1` [Example 1180, (4-(difluoromethyl)-2-((R)-1-hydroxyethyl)oxazol-5-yl)((S)4-(7-(trifluoromethyl)pyrazolo[1,5-a]pyridin-2-yl)-6,7-dihydro-1H-imidazo[4,5-c]pyridin-5(4H)-yl)methanone], 500 to 1000 nM; that for `COc1cccn2nc([C@H]3c4nc[nH]c4CCN3C(=O)c3nnc(C(C)(C)C)o3)cc12` [Example 1182, (R)-(5-(tert-butyl)-1,3,4-oxadiazol-2-yl)(4-(4-methoxypyrazolo[1,5-a]pyridin-2-yl)-6,7-dihydro-1H-imidazo[4,5-c]pyridin-5(4H)-yl)methanone], 1000 to 5000 nM.
The result for `COc1cccn2nc([C@@H]3c4nc[nH]c4CCN3C(=O)c3nnc(C(C)(C)C)o3)cc12` [Example 1183, (S)-(5-(tert-butyl)-1,3,4-oxadiazol-2-yl)(4-(4-methoxypyrazolo[1,5-a]pyridin-2-yl)-6,7-dihydro-1H-imidazo[4,5-c]pyridin-5(4H)-yl)methanone] reads 500 to 1000 nM.
In the case of `Cc1ccc2cc([C@H]3c4nc[nH]c4CCN3C(=O)c3cnco3)nn2c1` [Example 1186, (R)-(4-(6-methylpyrazolo[1,5-a]pyridin-2-yl)-6,7-dihydro-1H-imidazolo[4,5-c]pyridin-5(4H)-yl)(oxazol-5-yl)methanone], the AC50 was 500 to 1000 nM.
With `Cc1ccc2cc([C@@H]3c4nc[nH]c4CCN3C(=O)c3cnco3)nn2c1` [Example 1187, (S)-(4-(6-methylpyrazolo[1,5-a]pyridin-2-yl)-6,7-dihydro-1H-imidazo[4,5-c]pyridin-5(4H)-yl)(oxazol-5-yl)methanone] the figure was 1000 to 5000 nM; with `Cc1c(-c2nnc(C(=O)N3CCc4[nH]cnc4[C@@H]3c3cc4cccc(C)n4n3)o2)cnn1C` [Example 1189, (R)-(5-(1,5-dimethyl-1H-pyrazol-4-yl)-1,3,4-oxadiazol-2-yl)(4-(7-methylpyrazolo[1,5-a]pyridin-2-yl)-6,7-dihydro-1H-imidazo[4,5-c]pyridin-5(4H)-yl)methanone], 1000 to 5000 nM.
With `Cc1c(-c2nnc(C(=O)N3CCc4[nH]cnc4[C@@H]3c3cc4cccc(C(F)(F)F)n4n3)o2)cnn1C` [Example 1191, (R)-(5-(1,5-dimethyl-1H-pyrazol-4-yl)-1,3,4-oxadiazol-2-yl)(4-(7-(trifluoromethyl)pyrazolo[1,5-a]pyridin-2-yl)-6,7-dihydro-1H-imidazo[4,5-c]pyridin-5(4H)-yl)methanone] the figure was 1000 to 5000 nM; with `CC(C)(O)c1nc(C(F)(F)F)c(C(=O)N2CCc3[nH]cnc3[C@H]2c2cc3cccc(Cl)n3n2)o1` [Example 1192, (S)-(4-(7-chloropyrazolo[1,5-a]pyridin-2-yl)-6,7-dihydro-1H-imidazo[4,5-c]pyridin-5(4H)-yl)(2-(2-hydroxypropan-2-yl)-4-(trifluoromethyl)oxazol-5-yl)methanone], less than 500 nM.
The result for `CC(C)(O)c1nc(C(F)(F)F)c(C(=O)N2CCc3[nH]cnc3[C@@H]2c2cc3cccc(Cl)n3n2)o1` [Example 1193, (R)-(4-(7-chloropyrazolo[1,5-a]pyridin-2-yl)-6,7-dihydro-1H-imidazo[4,5-c]pyridin-5(4H)-yl)(2-(2-hydroxypropan-2-yl)-4-(trifluoromethyl)oxazol-5-yl)methanone] reads 1000 to 5000 nM; that for `C[C@H](O)c1nc(C(F)F)c(C(=O)N2CCc3[nH]cnc3[C@@H]2c2cc3cccc(Cl)n3n2)o1` [Example 1194, ((R)-4-(7-chloropyrazolo[1,5-a]pyridin-2-yl)-6,7-dihydro-1H-imidazo[4,5-c]pyridin-5(4H)-yl)(4-(difluoromethyl)-2-((S)-1-hydroxyethyl)oxazol-5-yl)methanone], 1000 to 5000 nM.
With `C[C@H](O)c1nc(C(F)F)c(C(=O)N2CCc3[nH]cnc3[C@H]2c2cc3cccc(Cl)n3n2)o1` [Example 1195, ((S)-4-(7-chloropyrazolo[1,5-a]pyridin-2-yl)-6,7-dihydro-1H-imidazo[4,5-c]pyridin-5(4H)-yl)(4-(difluoromethyl)-2-((S)-1-hydroxyethyl)oxazol-5-yl)methanone], the AC50 lay within 500 to 1000 nM.
The result for `C[C@@H](O)c1nc(C(F)F)c(C(=O)N2CCc3[nH]cnc3[C@@H]2c2cc3cccc(Cl)n3n2)o1` [Example 1197, ((R)-4-(7-chloropyrazolo[1,5-a]pyridin-2-yl)-6,7-dihydro-1H-imidazo[4,5-c]pyridin-5(4H)-yl)(4-(difluoromethyl)-2-((R)-1-hydroxyethyl)oxazol-5-yl)methanone] reads 1000 to 5000 nM; that for `C[C@H](O)c1nc(C(F)F)c(C(=O)N2CCc3[nH]cnc3[C@H]2c2cc3cccc(C(F)(F)F)n3n2)o1` [Example 1200, (4-(difluoromethyl)-2-((S)-1-hydroxyethyl)oxazol-5-yl)((S)-4-(7-(trifluoromethyl)pyrazolo[1,5-a]pyridin-2-yl)-6,7-dihydro-1H-imidazo[4,5-c]pyridin-5(4H)-yl)methanone], 500 to 1000 nM.
The result for `C[C@H](O)c1nc(C(F)F)c(C(=O)N2CCc3[nH]cnc3[C@@H]2c2cc3cccc(C(F)(F)F)n3n2)o1` [Example 1201, (4-(difluoromethyl)-2-((S)-1-hydroxyethyl)oxazol-5-yl)((R)-4-(7-(trifluoromethyl)pyrazolo[1,5-a]pyridin-2-yl)-6,7-dihydro-1H-imidazo[4,5-c]pyridin-5(4H)-yl)methanone] reads 500 to 1000 nM; that for `O=C(c1ocnc1C(F)F)N1CCc2[nH]cnc2[C@H]1c1cc2cccc(F)n2n1` [Example 1202, (S)-(4-(difluoromethyl)oxazol-5-yl)(4-(7-fluoropyrazolo[1,5-a]pyridin-2-yl)-6,7-dihydro-1H-imidazo[4,5-c]pyridin-5(4H)-yl)methanone], less than 500 nM; that for `O=C(c1ocnc1C(F)F)N1CCc2[nH]cnc2[C@@H]1c1cc2cccc(F)n2n1` [Example 1203, (R)-(4-(difluoromethyl)oxazol-5-yl)(4-(7-fluoropyrazolo[1,5-a]pyridin-2-yl)-6,7-dihydro-1H-imidazo[4,5-c]pyridin-5(4H)-yl)methanone], 1000 to 5000 nM.
With `Cc1c(-c2nnc(C(=O)N3CCc4[nH]cnc4[C@H]3c3cc4c(C(F)(F)F)cccn4n3)o2)cnn1C` [Example 1204, (S)-(5-(1,5-dimethyl-1H-pyrazol-4-yl)-1,3,4-oxadiazol-2-yl)(4-(4-(trifluoromethyl)pyrazolo[1,5-a]pyridin-2-yl)-6,7-dihydro-1H-imidazo[4,5-c]pyridin-5(4H)-yl)methanone] the figure was less than 500 nM; with `Cc1c(-c2nnc(C(=O)N3CCc4[nH]cnc4[C@@H]3c3cc4c(C(F)(F)F)cccn4n3)o2)cnn1C` [Example 1205, (R)-(5-(1,5-dimethyl-1H-pyrazol-4-yl)-1,3,4-oxadiazol-2-yl)(4-(4-(trifluoromethyl)pyrazolo[1,5-a]pyridin-2-yl)-6,7-dihydro-1H-imidazo[4,5-c]pyridin-5(4H)-yl)methanone], more than 5000 nM; with `COc1cccn2nc([C@@H]3c4nc[nH]c4CCN3C(=O)c3nnc(-c4cnn(C)c4C)o3)cc12` [Example 1206, (S)-(5-(1,5-dimethyl-1H-pyrazol-4-yl)-1,3,4-oxadiazol-2-yl)(4-(4-methoxypyrazolo[1,5-a]pyridin-2-yl)-6,7-dihydro-1H-imidazo[4,5-c]pyridin-5(4H)-yl)methanone], 500 to 1000 nM.
